IC50 data for 31 molecules are collected here from patent US7713994B2 (Wyeth LLC, priority 2005, dated 2010).

For this assay, the target named is T1, cyclin D1/cdk 4 enzyme (Homo sapiens, UniProt P11802).
T1 construct: made in house; host or cells: Sf9 insect cells, recombinant baculovirus
T1 sequence (P11802 whole entry, species assumed): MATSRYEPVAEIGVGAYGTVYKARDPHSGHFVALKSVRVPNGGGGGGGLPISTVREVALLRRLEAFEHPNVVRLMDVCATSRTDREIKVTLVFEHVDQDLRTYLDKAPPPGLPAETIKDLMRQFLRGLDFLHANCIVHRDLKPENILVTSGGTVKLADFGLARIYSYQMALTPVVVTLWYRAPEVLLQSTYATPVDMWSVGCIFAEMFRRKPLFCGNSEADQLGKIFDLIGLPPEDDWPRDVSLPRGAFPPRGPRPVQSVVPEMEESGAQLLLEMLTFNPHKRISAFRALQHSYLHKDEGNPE
T1 sequence (P24385 whole entry partner, species assumed): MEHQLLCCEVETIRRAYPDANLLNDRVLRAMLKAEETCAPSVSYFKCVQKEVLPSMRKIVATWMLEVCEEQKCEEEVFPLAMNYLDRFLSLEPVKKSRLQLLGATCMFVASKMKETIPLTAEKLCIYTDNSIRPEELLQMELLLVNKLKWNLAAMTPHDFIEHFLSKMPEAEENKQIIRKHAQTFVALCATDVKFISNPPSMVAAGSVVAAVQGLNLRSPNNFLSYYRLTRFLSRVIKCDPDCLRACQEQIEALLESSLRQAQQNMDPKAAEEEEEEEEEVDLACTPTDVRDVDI
The experiment in a line: CDK4 ELISA kinase assay (phospho-Rb ser 795 detection). In kind it is biochemical. The following applies: In Vitro Enzyme Assay, cyclin D1/cdk 4, read-out: CDK4 IC50. In outline:
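Wells were coated overnight with GST-Rb C-terminal fragment, then blocked. Compound (10 ug/ml final) and cyclin/CDK enzyme from baculovirus-infected Sf9 cells with 200 μM ATP reacted 1 h at 30° C. Ser795 phosphorylation was detected by ELISA at 450 nm.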
With `NS(=O)(=O)c1ccc(CNC=C2C(=O)NC(=O)c3ccc(-c4ccc(C(F)(F)F)cc4)cc32)cc1` [Example 743, 4-({[1,3-Dioxo-6-(4-trifluoromethyl-phenyl)-2,3-dihydro-1H-isoquinolin-4-ylidenemethyl]-amino}-methyl)-benzenesulfonamide], the IC50 stood at 11.3 µM. As to `NS(=O)(=O)c1ccc(CNC=C2C(=O)NC(=O)c3ccc(-c4cccc(C(F)(F)F)c4)cc32)cc1` [Example 744, 4-({[1,3-Dioxo-6-(3-trifluoromethyl-phenyl)-2,3-dihydro-1H-isoquinolin-4-ylidenemethyl]-amino}-methyl)-benzenesulfonamide], the IC50 was 48.6 µM. Turning to `NS(=O)(=O)c1ccc(CNC=C2C(=O)NC(=O)c3ccc(-c4ccccc4C(F)(F)F)cc32)cc1` [Example 745, 4-({[1,3-Dioxo-6-(2-trifluoromethyl-phenyl)-2,3-dihydro-1H-isoquinolin-4-ylidenemethyl]-amino}-methyl)-benzenesulfonamide], the IC50 amounted to 19.9 µM. For `CC(=O)c1ccc(-c2ccc3c(c2)C(=CNCc2ccc(S(N)(=O)=O)cc2)C(=O)NC3=O)cc1` [Example 746, 4-({[6-(4-Acetyl-phenyl)-1,3-dioxo-2,3-dihydro-1H-isoquinolin-4-ylidenemethyl]-amino}-methyl)-benzenesulfonamide], the IC50 came out at 0.5 µM.

As to `CC(=O)c1cccc(-c2ccc3c(c2)C(=CNCc2ccc(S(N)(=O)=O)cc2)C(=O)NC3=O)c1` [Example 747, 4-({[6-(3-Acetyl-phenyl)-1,3-dioxo-2,3-dihydro-1H-isoquinolin-4-ylidenemethyl]-amino}-methyl)-benzenesulfonamide], the half-maximal inhibitory concentration (IC50) came out at 14.5 µM.

Regarding `CC(=O)c1ccccc1-c1ccc2c(c1)C(=CNCc1ccc(S(N)(=O)=O)cc1)C(=O)NC2=O` [Example 748, 4-({[6-(2-Acetyl-phenyl)-1,3-dioxo-2,3-dihydro-1H-isoquinolin-4-ylidenemethyl]-amino}-methyl)-benzenesulfonamide], the 50% inhibitory concentration (IC50) worked out at 46.2 µM. Regarding `Cc1ccccc1-c1ccc2c(c1)C(=CNCc1ccc(S(N)(=O)=O)cc1)C(=O)NC2=O` [Example 754, 4-{[(1,3-Dioxo-6-o-tolyl-2,3-dihydro-1H-isoquinolin-4-ylidenemethyl)-amino]-methyl}-benzenesulfonamide], the IC50 was 11 µM.

Regarding `NS(=O)(=O)c1ccc(CNC=C2C(=O)NC(=O)c3ccc(-c4ccc(-c5ccccc5)cc4)cc32)cc1` [Example 757, 4-{[(6-Biphenyl-4-yl-1,3-dioxo-2,3-dihydro-1H-isoquinolin-4-ylidenemethyl)-amino]-methyl}-benzenesulfonamide], the IC50 was found to be 31.1 µM. Regarding `NS(=O)(=O)c1ccc(CNC=C2C(=O)NC(=O)c3ccc(-c4cccc(-c5ccccc5)c4)cc32)cc1` [Example 758, 4-{[(6-Biphenyl-3-yl-1,3-dioxo-2,3-dihydro-1H-isoquinolin-4-ylidenemethyl)-amino]-methyl}-benzenesulfonamide], the IC50 is 25.7 µM. Turning to `NS(=O)(=O)c1ccc(CNC=C2C(=O)NC(=O)c3ccc(-c4ccc(C=CC(=O)O)cc4)cc32)cc1` [Example 759, 3-(4-{1,3-Dioxo-4-[(4-sulfamoyl-benzylamino)-methylene]-1,2,3,4-tetrahydro-isoquinolin-6-yl}-phenyl)-acrylic acid], the IC50 was determined as 1.7 µM. As to `NS(=O)(=O)c1ccc(CNC=C2C(=O)NC(=O)c3ccc(-c4cccc(C=CC(=O)O)c4)cc32)cc1` [Example 760, 3-(3-{1,3-Dioxo-4-[(4-sulfamoyl-benzylamino)-methylene]-1,2,3,4-tetrahydro-isoquinolin-6-yl}-phenyl)-acrylic acid], the IC50 came to 2.2 µM. Regarding `CC(C)c1ccc(-c2ccc3c(c2)C(=CNCc2ccc(S(N)(=O)=O)cc2)C(=O)NC3=O)cc1` [Example 761, 4-({[6-(4-Isopropyl-phenyl)-1,3-dioxo-2,3-dihydro-1H-isoquinolin-4-ylidenemethyl]-amino}-methyl)-benzenesulfonamide], the IC50 turned out to be 18.4 µM. Regarding `CC(C)c1cccc(-c2ccc3c(c2)C(=CNCc2ccc(S(N)(=O)=O)cc2)C(=O)NC3=O)c1` [Example 762, 4-({[6-(3-Isopropyl-phenyl)-1,3-dioxo-2,3-dihydro-1H-isoquinolin-4-ylidenemethyl]-amino}-methyl)-benzenesulfonamide], the IC50 was determined as 33.6 µM. The result for `CSc1ccc(-c2ccc3c(c2)C(=CNCc2ccc(S(N)(=O)=O)cc2)C(=O)NC3=O)cc1` [Example 763, 4-({[6-(4-Methylsulfanyl-phenyl)-1,3-dioxo-2,3-dihydro-1H-isoquinolin-4-ylidenemethyl]-amino}-methyl)-benzenesulfonamide] reads 49.6 µM; that for `O=C1NC(=O)c2ccc(-c3ccccc3C(F)(F)F)cc2C1=CNCc1ccc(O)c(O)c1` [Example 774, 4-[(3,4-Dihydroxy-benzylamino)-methylene]-6-(2-trifluoromethyl-phenyl)-4H-isoquinoline-1,3-dione], 1.4 µM.

Turning to `CC(=O)c1ccccc1-c1ccc2c(c1)C(=CNCc1ccc(O)c(O)c1)C(=O)NC2=O` [Example 777, 6-(2-Acetyl-phenyl)-4-[(3,4-dihydroxy-benzylamino)-methylene]-4H-isoquinoline-1,3-dione], the IC50 was determined as 3.78 µM. As to `Cc1ccccc1-c1ccc2c(c1)C(=CNCc1ccc(O)c(O)c1)C(=O)NC2=O` [Example 783, 4-[(3,4-Dihydroxy-benzylamino)-methylene]-6-o-tolyl-4H-isoquinoline-1,3-dione], the IC50 came to 1.23 µM. Turning to `O=C1NC(=O)c2ccc(-c3ccc(-c4ccccc4)cc3)cc2C1=CNCc1ccc(O)c(O)c1` [Example 786, 6-Biphenyl-4-yl-4-[(3,4-dihydroxy-benzylamino)-methylene]-4H-isoquinoline-1,3-dione], the IC50 is 9.74 µM.

In the case of `O=C1NC(=O)c2ccc(-c3cccc(-c4ccccc4)c3)cc2C1=CNCc1ccc(O)c(O)c1` [Example 787, 6-Biphenyl-3-yl-4-[(3,4-dihydroxy-benzylamino)-methylene]-4H-isoquinoline-1,3-dione], the IC50 was 2.27 µM. Regarding `CC(C)c1ccc(-c2ccc3c(c2)C(=CNCc2ccc(O)c(O)c2)C(=O)NC3=O)cc1` [Example 790, 4-[(3,4-Dihydroxy-benzylamino)-methylene]-6-(4-isopropyl-phenyl)-4H-isoquinoline-1,3-dione], the IC50 came out at 1.45 µM. As for `CC(C)c1cccc(-c2ccc3c(c2)C(=CNCc2ccc(O)c(O)c2)C(=O)NC3=O)c1` [Example 791, 4-[(3,4-Dihydroxy-benzylamino)-methylene]-6-(3-isopropyl-phenyl)-4H-isoquinoline-1,3-dione], the IC50 is 4.99 µM. With `CSc1ccccc1-c1ccc2c(c1)C(=CNCc1ccc(O)c(O)c1)C(=O)NC2=O` [Example 793, 4-[(3,4-Dihydroxy-benzylamino)-methylene]-6-(2-methylsulfanyl-phenyl)-4H-isoquinoline-1,3-dione], the IC50 came to 1.96 µM. For `CCN(CC)CCOC=Cc1ccc2c(c1)C(=CNc1ccc(N3CCN(C)CC3)cc1)C(=O)NC2=O` [Example 794, 6-[2-(2-Diethylamino-ethoxy)-vinyl]-4-{[4-(4-methyl-piperazin-1-yl)-phenylamino]-methylene}-4H-isoquinoline-1,3-dione], the IC50 stood at 41.7 µM. In the case of `CN1CCN(c2ccc(NC=C3C(=O)NC(=O)c4ccc(C=CCCC(=O)O)cc43)cc2)CC1` [Example 795, 5-(4-{[4-(4-Methyl-piperazin-1-yl)-phenylamino]-methylene}-1,3-dioxo-1,2,3,4-tetrahydro-isoquinolin-6-yl)-pent-4-enoic acid], the IC50 is 24.2 µM.

Regarding `CN1CCN(c2ccc(NC=C3C(=O)NC(=O)c4ccc(C=CCCO)cc43)cc2)CC1` [Example 796, 6-(4-Hydroxy-but-1-enyl)-4-{[4-(4-methyl-piperazin-1-yl)-phenylamino]-methylene}-4H-isoquinoline-1,3-dione], the 50% inhibitory concentration (IC50) was found to be 2.27 µM. The same measure for `CN1CCN(c2ccc(NC=C3C(=O)NC(=O)c4ccc(C=CCCCCO)cc43)cc2)CC1` [Example 798, 6-(6-Hydroxy-hex-1-enyl)-4-{[4-(4-methyl-piperazin-1-yl)-phenylamino]-methylene}-4H-isoquinoline-1,3-dione]: 2.5 µM; for `CN1CCN(c2ccc(NC=C3C(=O)NC(=O)c4ccc(C=CCOCCO)cc43)cc2)CC1` [Example 799, 6-[3-(2-Hydroxy-ethoxy)-propenyl]-4-{[4-(4-methyl-piperazin-1-yl)-phenylamino]-methylene}-4H-isoquinoline-1,3-dione]: 6.37 µM. `CN1CCN(c2ccc(NC=C3C(=O)NC(=O)c4ccc(C=CCN5CC(=O)NC5=O)cc43)cc2)CC1` [Example 800, 6-[3-(2,4-Dioxo-imidazolidin-1-yl)-propenyl]-4-{[4-(4-methyl-piperazin-1-yl)-phenylamino]-methylene}-4H-isoquinoline-1,3-dione]: the IC50 amounted to 5.04 µM.

Regarding `CN1CCN(c2ccc(NC=C3C(=O)NC(=O)c4ccc(C=CCc5ccccc5O)cc43)cc2)CC1` [Example 801, 6-[3-(2-Hydroxy-phenyl)-propenyl]-4-{[4-(4-methyl-piperazin-1-yl)-phenylamino]-methylene}-4H-isoquinoline-1,3-dione], the IC50 came to 15.5 µM.

As for `CC(C#N)=C(C)c1ccc2c(c1)C(=CNc1ccc(N3CCN(C)CC3)cc1)C(=O)NC2=O` [Example 802, 2-Methyl-3-(4-{[4-(4-methyl-piperazin-1-yl)-phenylamino]-methylene}-1,3-dioxo-1,2,3,4-tetrahydro-isoquinolin-6-yl)-but-2-enenitrile], the half-maximal inhibitory concentration (IC50) came out at 15 µM.

On to `CN1CCN(c2ccc(NC=C3C(=O)NC(=O)c4ccc(C=Cc5ccc(CC#N)cc5)cc43)cc2)CC1` [Example 803, {4-[2-(4-{[4-(4-Methyl-piperazin-1-yl)-phenylamino]-methylene}-1,3-dioxo-1,2,3,4-tetrahydro-isoquinolin-6-yl)-vinyl]-phenyl}-acetonitrile], for which the IC50 came to 4.97 µM.
